Assay results reported in US4458079A, “Sulfur-containing imidazoles” (Bristol-Myers Company, priority 1980, dated 1984).
Values after ≈ are worked out from the molar mass of the structure shown.

What was measured:
Format in all cases: cell-based
[1] = tested on: Trichophyton rubrum; experiment: MIC in Sabouraud broth (broth dilution); details: 120 h, strain A 22789, five days at 28°, read-out: Minimum Inhibitory Concentration (MIC)
Text: (§1) The antifungal activity of some of the compounds of Formula I against a number of human and animal pathogenic fungi is given in Table I for either a liquid medium (Sabouraud broth) or an agar medium (Sabouraud broth plus 1% ionagar). Two-fold serial dilutions were made with Sabouraud's liquid medium from stock solutions of the test compounds, usually in dimethyl sulfoxide, N,N-dimethylformamide or water. The Minimum Inhibitory Concentrations (MIC's), which were considered to be the minimum concentrations of the test compounds in micrograms per milliliter which prevent grossly detectable growth of the test organisms, were then determined after inoculation of the medicated broths with the test organisms, and incubation at the appropriate temperature and for the appropriate time interval. Candida species were incubated for 24 hours at 37°, while the dermatophytes Trichophyton rubrum, Trichophyton mentagrophytes and Microsporum canis were incubated for five days at 28°. The agar dilution assay was essentially the same as the broth dilution assay except that 1% inoagar was added to the Sabouraud broth.

[2] = tested on: Trichophyton mentagrophytes; experiment: MIC in Sabouraud broth (broth dilution); details: 120 h, strain A 9870, five days at 28°, read-out: Minimum Inhibitory Concentration (MIC)
Text: as §1

[3] = tested on: Candida albicans; experiment: MIC in Sabouraud broth (broth dilution); details: 24 h, read-out: Minimum Inhibitory Concentration (MIC)
Text: as §1

[4] = tested on: Microsporum canis; experiment: MIC in Sabouraud broth (broth dilution); details: 120 h, read-out: Minimum Inhibitory Concentration (MIC)
Text: as §1

[5] = tested on: Candida tropicalis; experiment: MIC in Sabouraud broth (broth dilution); details: strain A 15051, 24 hours at 37°, read-out: Minimum Inhibitory Concentration (MIC)
Text: as §1

[6] = tested on: Candida krusei; experiment: MIC in Sabouraud broth (broth dilution); details: Pichia kudriavzevii, strain A 15052, 24 hours at 37°, read-out: Minimum Inhibitory Concentration (MIC)
Text: as §1

[7] = tested on: Trichophyton rubrum; experiment: MIC in Sabouraud broth plus 1% ionagar (agar dilution); details: 120 h, strain A 22789, five days at 28°, read-out: Minimum Inhibitory Concentration (MIC)
Text: as §1

[8] = tested on: Trichophyton mentagrophytes; experiment: as above; details: 120 h, strain A 9870, five days at 28°, read-out: Minimum Inhibitory Concentration (MIC)
Text: as §1

[9] = tested on: Candida albicans; experiment: as above; details: 24 h, read-out: Minimum Inhibitory Concentration (MIC)
Text: as §1

[10] = tested on: Microsporum canis; experiment: as above; details: 120 h, read-out: Minimum Inhibitory Concentration (MIC)
Text: as §1

[11] = tested on: Candida tropicalis; experiment: as above; details: strain A 15051, 24 hours at 37°, read-out: Minimum Inhibitory Concentration (MIC)
Text: as §1

[12] = tested on: Candida krusei; experiment: as above; details: Pichia kudriavzevii, strain A 15052, 24 hours at 37°, read-out: Minimum Inhibitory Concentration (MIC)
Text: as §1

[13] = strain A 15049, 24 hours at 37°
[14] = strain A 9872, five days at 28°
[15] = strain A 22494, five days at 28°

Row | SMILES | MIC [1] | MIC [2] | MIC ([3]; strain A 1505, 24 hours at 37°) | MIC ([3]; strain A 9540, 24 hours at 37°) | MIC [3, 13] | MIC [4, 14] | MIC [4, 15] | MIC [5] | MIC [6] | MIC [7] | MIC [8] | MIC ([9]; strain A 1505, 24 hours at 37°) | MIC ([9]; strain A 9540, 24 hours at 37°) | MIC [9, 13] | MIC [10, 14] | MIC [10, 15] | MIC [11] | MIC [12]
1 | Cc1ccc(CSC(Cn2ccnc2)SCc2ccc(C)cc2)cc1.Cl [2(j), 1-[2,2-bis(4-methylbenzylthio)ethyl]-1H-imidazole hydrochloride] | 0.063 µg/mL | 0.063 µg/mL | 4 µg/mL | 4 µg/mL | 4 µg/mL | 0.063 µg/mL | 0.063 µg/mL | > 16 µg/mL | 8 µg/mL | – | – | – | – | – | – | – | – | –
2 | CSc1ccc(CSC(Cn2ccnc2)SCc2ccc(SC)cc2)cc1.Cl [2(l), 1-[2,2-bis(4-methylthiobenzylthio)ethyl]-1H-imidazole hydrochloride] | 0.063 µg/mL | 0.063 µg/mL | > 16 µg/mL | > 16 µg/mL | > 16 µg/mL | 0.063 µg/mL | 0.13 µg/mL | > 16 µg/mL | 8 µg/mL | – | – | – | – | – | – | – | – | –
3 | Cl.Clc1ccc(CSC(Cn2ccnc2)SCc2ccc(Cl)s2)s1 [2(p), 1-[2,2-bis(5-chloro-2-thienylmethylthio)ethyl]-1H-imidazole hydrochloride] | – | – | – | – | – | – | – | – | – | 0.5 µg/mL | 0.5 µg/mL | 4 µg/mL | 4 µg/mL | 4 µg/mL | 0.25 µg/mL | 0.032 µg/mL | 125 µg/mL | 8 µg/mL

Other lines, results leading:

Row | MIC [1] | MIC [2] | MIC ([3]; strain A 1505, 24 hours at 37°) | MIC ([3]; strain A 9540, 24 hours at 37°) | MIC [3, 13] | MIC [4, 14] | MIC [4, 15] | MIC [5] | MIC [6] | MIC [7] | MIC [8] | MIC ([9]; strain A 1505, 24 hours at 37°) | MIC ([9]; strain A 9540, 24 hours at 37°) | MIC [9, 13] | MIC [10, 14] | MIC [10, 15] | MIC [11] | MIC [12] | SMILES
4 | 0.063 µg/mL (≈ 0.132 µM) | 0.063 µg/mL (≈ 0.132 µM) | > 16 µg/mL | > 16 µg/mL | > 16 µg/mL | 0.032 µg/mL (≈ 0.0669 µM) | 0.063 µg/mL (≈ 0.132 µM) | > 16 µg/mL | > 16 µg/mL | – | – | – | – | – | – | – | – | – | Clc1ccc(CSC(Cn2ccnc2)SCc2ccc(Cl)cc2Cl)c(Cl)c1 [2(g), 1-[2,2-bis(2,4-dichlorobenzylthio)ethyl]-1H-imidazole]
5 | – | – | – | – | – | – | – | – | – | 0.5 µg/mL | 1 µg/mL | 16 µg/mL | 8 µg/mL | 16 µg/mL | 1 µg/mL | 0.25 µg/mL | 63 µg/mL | 32 µg/mL | Clc1cccc(Cl)c1CSC(Cn1ccnc1)SCc1c(Cl)cccc1Cl.O=C(O)C(=O)O [2(h), 1-[2,2-bis(2,6-dichlorobenzylthio)ethyl]-1H-imidazole hydrogen oxalate]
6 | 0.063 µg/mL | 0.032 µg/mL | 2 µg/mL | 1 µg/mL | 2 µg/mL | 0.032 µg/mL | 0.063 µg/mL | > 16 µg/mL | 0.5 µg/mL | – | – | – | – | – | – | – | – | – | Cl.Clc1ccc(CSC(Cn2ccnc2)SCc2ccc(Cl)cc2)cc1 [Example 1, 1-[2,2-Bis(4-chlorobenzylthio)ethyl]-1H-imidazole Hydrochloride]
7 | – | – | – | – | – | – | – | – | – | 0.25 µg/mL | 0.063 µg/mL | 4 µg/mL | 4 µg/mL | 4 µg/mL | 0.25 µg/mL | 0.032 µg/mL | 32 µg/mL | 4 µg/mL | Cl.Clc1ccc(CSC(Cn2ccnc2)Sc2ccc(Cl)cc2)cc1 (stereo not drawn) [Example 5, 1-[2-(4-Chlorobenzylthio)-2-(4-chlorophenylthio)ethyl]-1H-imidazole Hydrochloride]
